Source: PubChem BioAssay (NCI)
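Test compounds were applied to cells in 96-well plates for 48 hours at 5 doses. GI50 is the concentration that inhibits growth by half. TGI marks complete inhibition of growth.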

Experiments:
Assay in all cases: growth of human tumour cells (NCI), 48 h
[1] = tested on: SK-OV-3 ovarian
[2] = tested on: NCI-H226 lung
[3] = tested on: TK-10 renal
[4] = tested on: HCT-116 colon
[5] = tested on: SNB-19 CNS
[6] = tested on: OVCAR-8 ovarian
[7] = tested on: K-562 leukemia
[8] = tested on: NCI-H23 lung
[9] = tested on: 786-0 renal
[10] = tested on: HOP-62 NSCLC

SMILES | GI50 [1] [µM] | TGI [1] [µM] | GI50 [2] [µM] | TGI [2] [µM] | GI50 [3] [µM] | TGI [3] [µM] | GI50 [4] [µM] | TGI [4] [µM] | GI50 [5] [µM] | TGI [5] [µM] | GI50 [6] [µM] | TGI [6] [µM] | GI50 [7] [µM] | GI50 [8] [µM] | TGI [8] [µM] | GI50 [9] [µM] | TGI [9] [µM] | GI50 [10] [µM] | TGI [10] [µM] | TGI [7] [µM]
CN(C)CCOc1ccc2c(c1)C(=O)/C(=C\c1ncc([N+](=O)[O-])n1C)C2 | 0.923 | 3.21 | 1.31 | 3.7 | 1.57 | 4.8 | 0.316 | 1.28 | 1.15 | 3.18 | 0.95 | > 20.5 | 0.295 | 0.258 | 1.3 | 0.857 | 3.39 | 1.59 | 4.34 | –
CNC(=O)c1cc(-c2ccc(F)cc2)cc(-c2ccc(S(=O)(=O)N3CCCC3)cc2)c1N | > 25 | > 25 | > 25 | > 25 | > 25 | > 25 | 11.6 | > 25 | > 25 | > 25 | > 25 | > 25 | 20.4 | > 25 | > 25 | 24.4 | > 25 | > 25 | > 25 | > 25
COc1cc([C@@H]2c3cc4c(cc3[C@@H](NCc3cccc(F)c3)C3COC(=O)[C@@H]32)OCO4)cc(OC)c1O (some centres undefined) | – | 35.3 | – | 6.55 | – | 40.9 | – | 20.1 | – | > 65 | – | 25.3 | – | – | 7.89 | – | 10.2 | – | 4.76 | 28.9
O=C1C(=Cc2ccc(F)cc2)C(=O)c2ccccc21 | – | > 100 | – | > 100 | – | > 100 | – | > 100 | – | > 100 | – | > 100 | – | – | > 100 | – | > 100 | – | > 100 | > 100
